Results published in patent publication US20250082657A1, “CONJUGATES OF CHEMOTHERAPY AGENTS AND TISSUE-BINDING SMALL MOLECULES, COMPOSITIONS AND METHODS THEREOF” (CANWELL BIOTECH LIMITED, priority 2022, published 2025).
Read-outs that look alike come from different tables or passages of the source. Each block holds one molecule with its values, some of them ahead of it.

How the values were obtained:
physchem = settings: buffer, pH 7.4
Experimental: (§3) Test compounds spiking solution: 1 mM test compounds spiking solution A: Add 10 μL of 10 mM test compounds stock solution to 90 μL DMSO. • 2. Add 396 μL of buffer into the tubes designated for different time points. Pre-warm the samples at 37° C. for 10 min. • 3. Add 4 μL of spiking solution A into the wells designated as 0 min (or 15, 45, 90, 120 min) containing 396 μL of buffer, then start timing count down. • 4. At each time point, add 1200 μL ACN containing IS into the tubes. • 5. Samples are centrifuged at 10,000 rpm for 5 min, then 100 μL of supernatant are ready for LC-MS/MS analysis.

[1] = male, CD-1, mouse, in vivo
Experimental: (§4) Pharmacokinetic parameters were determined in male CD-1 mice (Shanghai Jihui Laboratory Animal Care Co., Ltd., 6-8 weeks old). Animals were maintained under a 12 hr light/dark cycle. Animals had free access to food and water during the study.
(§5) For intravenous, compounds were formulated as a solution (in 5% DMSO+10% Solutol HS15+85% (20% HP-β-CD in water)) in 5 mL/kg dosing volume and administered via tail vein. For subcutaneous, compounds were formulated as a solution (in 5% DMSO+10% Solutol HS15+85% (20% HP-β-CD in water)) in 10 mL/kg dosing volume or (in 0.5% MC+1% Pluronic F68 in water) in 50 μL/mouse dosing volume and administered via subcutaneous puncture.
(§6) Semi-serial blood samples (about 110 μL) were taken from animal at 0.083, 0.25, 0.5, 1, 2, 4, 8 and 24 hr for IV group and 0.5, 2, 4, 8, 24, 48 and 96 hr for SC group. Samples were held on ice for no longer than 15 minutes before centrifugation (2000 g, 5 min, 4° C.) within 15 minutes post sampling. Plasma was snap frozen in dry ice and then transferred into −70° C. freezer for long term storage until LC-MS/MS analysis.
(§7) Tissue collection for SC group at 0.5, 2, 4, 8, 24, 48 and 96 hr. After animals were anesthetized and exsanguinated, tissue samples (including muscle and skin) were collected and weighted, and then snap frozen in liquid nitrogen and further stored at −70° C. for long term storage until LC-MS/MS analysis. Tissue samples were homogenized under freezing conditions.
(§8) PK parameters were generated from LC-MS/MS data using Phoenix WinNonlin 8.2 software.

[2] = Chemical stability in PBS (pH 7.4); settings: PBS buffer
Experimental: as §3

[3] = Pharmacokinetics in male CD-1 mice (plasma and tissue, LC-MS/MS); settings: CD-1, mouse
Experimental: as §4, §5, §6, §7, §8

MC38 = test: Cellular IC50 in MC38 tumor cell line (CellTiter-Glo); assay type: cell-based; settings: 72 h incubation
Experimental: (§1) The cellular inhibition was determined in three assays: U87MG, A549 and MC38. Cells were recovered and cultured in appropriate medium supplemented with 10% fetal bovine serum and 100 U/mL penicillin G sodium, and maintained in cell incubators (37° C., 5% CO2). Before testing, cells in culture dishes were rinsed with Phosphate Buffered Solution, detached with Trypsin. Dilute and adjust the cell number with the culture medium, add the cell suspension to the 96 well cell plate. Cells were maintained in incubators overnight. In T0 control plate, cells were added with 100 μL CellTiter-Glo reagent, balance at room temperature for 10 minutes, and read the chemiluminescence value with envision.
(§2) In the testing plate, compounds were dissolved with corresponding solvent and diluted gradiently. Diluted compound solution was added to a 96 well plate with cells. After incubation of 72 h, cells were added with 100 μL CellTiter-Glo reagent, balanced at room temperature for 10 minutes, and read the chemiluminescence value with envision. IC50 was calculated using the GraphPad Prism software package (Prism 6 for Windows, Version 6.0, GraphPad Software Inc., San Diego, CA).

U87MG = test: Cellular IC50 in U87MG tumor cell line (CellTiter-Glo); assay type: cell-based; settings: U87MG cells, 72 h incubation
Experimental: as §1, §2

A549 = test: Cellular IC50 in A549 tumor cell line (CellTiter-Glo); assay type: cell-based; settings: A549 cells, 72 h incubation
Experimental: as §1, §2

[4] = buffer
Experimental: as §3

in vivo = settings: male, CD-1, mouse, sc, 5 mg/kg
Experimental: as §4, §5, §6, §7, §8

[5] = Mus musculus, MC-38, MC38 cells

Compound: CCc1c2c(nc3ccc(OC(=O)C(C)CCc4ccc(I)cc4)cc13)-c1cc3c(c(=O)n1C2)COC(=O)[C@]3(O)CC (stereo partly shown) [Compound 2]
half-life at 10 µM (physchem): 23.1 h

Compound: CCc1c2c(nc3ccc(OC(=O)CCCc4ccc(I)cc4)cc13)-c1cc3c(c(=O)n1C2)COC(=O)[C@]3(O)CC [Compound 1]
Tissue/Plasma ratio ([1]; 3 mg/kg): 171.8
T½ ([1]; 3 mg/kg): 10.3 h
half-life at 10 µM (physchem): 19.7 h

Compound: CC(=O)O[C@@]12CO[C@@H]1C[C@H](O)[C@@]1(C)C(=O)[C@H](O)C3=C(C)[C@@H](OC(=O)[C@H](OC(=O)CCCc4ccc(I)cc4)[C@@H](NC(=O)OC(C)(C)C)c4ccccc4)C[C@@](O)([C@@H](OC(=O)c4ccccc4)[C@H]21)C3(C)C [Compound 30, (2aR,4S,4aS,6R,9S,11 S,12S,12aR,12bS)-12b-acetoxy-9-(((2R,3S)-3-((tert-butoxycarbonyl)amino)-2-((4-(4-iodophenyl)butanoyl)oxy)-3-phenylpropanoyl)oxy)-4,6,11-trihydroxy-4a,8,13,13-tetramethyl-5-oxo-2a,3,4,4a,5,6,9,10,11,12,12a,12b-dodecahydro-1H-7,11-methanocyclodeca[3,4]benzo[1,2-b]oxet-12-yl benzoate]
half-life (physchem): 13.4 h

Compound: CCc1c2c(nc3ccc(OC(=O)N(C)CCc4ccc(I)cc4)cc13)-c1cc3c(c(=O)n1C2)COC(=O)[C@]3(O)CC [Compound 4, (S)-4,11-diethyl-4-hydroxy-3,14-dioxo-3,4,12,14-tetrahydro-1H-pyrano[3′,4′:6,7]indolizino[1,2-b]quinolin-9-yl(4-iodophenethyl)(methyl)carbamate]
half-life at 10 µM [2]: 3.58 h

half-life at 10 µM [2]: 8.4 h
AUC(0-t) ([3]; tissue (muscle or skin, not specified which), sc, 10 mg/kg): 37.6 µg·h/mL
half-life ([3]; tissue (muscle or skin, not specified which), subcutaneous, 10 mg/kg): 11.3 h
Compound: O=C(CCCc1ccc(I)cc1)OCn1cc(F)c(=O)[nH]c1=O [Compound 28, (5-fluoro-2,4-dioxo-3,4-dihydropyrimidin-1(2H)-yl)methyl 4-(4-iodophenyl) butanoate]

Compound: CCc1c2c(nc3ccc(OC(=O)NCCc4ccc(I)cc4)cc13)-c1cc3c(c(=O)n1C2)COC(=O)[C@]3(O)CC [Compound 3, (S)-4,11-diethyl-4-hydroxy-3,14-dioxo-3,4,12,14-tetrahydro-1H-pyrano [3′,4′:6,7]indolizino[1,2-b]quinolin-9-yl(4-iodophenethyl)carbamate]
half-life at 10 µM [2]: 0.85 h

IC50 (MC38; [5]): 0.0159 µM
IC50 (U87MG; Homo sapiens, U-87 MG): 0.00727 µM
IC50 (A549; Homo sapiens): 0.0107 µM
half-life ([3]; in vivo, sc, 1 mg/kg): 93.2 h
AUC(0-t) ([3]; plasma, sc, 1 mg/kg): 0.165 µg·h/mL
Kp ([3]; tissue (muscle or skin, not specified) / plasma, subcutaneous, 1 mg/kg): 365
AUC(0-t) ([3]; tissue (muscle or skin, not specified), sc, 1 mg/kg): 60.3 µg·h/mL
Compound: CC(C)Cc1ccc([C@H](C)C(=O)NCCCC[N+]23CC(=O)O[B-]2([C@H](CC(C)C)NC(=O)[C@H](Cc2ccccc2)NC(=O)c2cnccn2)OC(=O)C3)cc1 (stereo partly drawn) [Compound 16, N-((S)-1-(((R)-1-(6-(4-((S)-2-(4-isobutylphenyl)propanamido)butyl)-4,8-dioxo-1,3,6,2-dioxazaborocan-2-yl)-3-methylbutyl)amino)-1-oxo-3-phenylpropan-2-yl)pyrazine-2-carboxamide]

Compound: CCc1c2c(nc3ccc(OC(=O)[C@@H](C)c4ccc(CC(C)C)cc4)cc13)-c1cc3c(c(=O)n1C2)COC(=O)[C@]3(O)CC [Compound 8, (S)-4,11-diethyl-4-hydroxy-3,14-dioxo-3,4,12,14-tetrahydro-1H-pyrano [3′,4′:6,7]indolizino[1,2-b]quinolin-9-yl(S)-2-(4-isobutylphenyl)propanoate]
IC50 (MC38; [5]): 0.0227 µM
IC50 (U87MG; Homo sapiens, U-87 MG): 0.0134 µM
T½ ([1]; sc, 5 mg/kg): >96 h
Stability (PBS, pH 7.4) T½ (min) [4]: ∞
IC50 (A549; Homo sapiens): 0.208 µM
AUC(0-t) (in vivo): 11800 µg·h/mL
half-life (in vivo): 44.1 h

IC50 (MC38; [5]): > 10 µM
Compound: CC(C)Cc1ccc([C@H](C)C(=O)O)cc1 [Compound 8-1]

Compound: CCc1c2c(nc3ccc(O)cc13)-c1cc3c(c(=O)n1C2)COC(=O)[C@]3(O)CC [Compound 1-1, SN-38, reference compound]
IC50 (MC38; MC38 cells): 0.0212 µM
IC50 (U87MG): 0.0136 µM
IC50 (A549): 0.0995 µM

IC50 (MC38; [5]): 0.0163 µM
IC50 (U87MG; Homo sapiens, U-87 MG): 0.00689 µM
IC50 (A549; Homo sapiens): 0.00936 µM
Compound: CC(C)C[C@H](NC(=O)[C@H](Cc1ccccc1)NC(=O)c1cnccn1)B(O)O [Compound 9-7, Valcade, reference compound]
